Measured values as given in patent US12492197B2, “3,5-disubstituted pyrazole compounds as kinase inhibitors and uses thereof” (IMPACT THERAPEUTICS (SHANGHAI), INC, priority 2019, dated 2025).

Assays:
CHK1 kinase = target: T1, CHK1 kinase (Homo sapiens, UniProt O14757); test: CHK1 kinase inhibition, ADP-Glo kinase assay; assay type: biochemical; settings: ATP 10 μM, CHK1 1 ng/well; for IC50: read-out: IC50 (inhibitory effect on CHK1 kinase activity); for inhibition at 0.01 µM: compound concentration 10 nM, read-out: Inh % (inhibitory effect on CHK1 kinase activity)
T1 construct: purchased Promega V1941
T1 sequence (O14757 1-476): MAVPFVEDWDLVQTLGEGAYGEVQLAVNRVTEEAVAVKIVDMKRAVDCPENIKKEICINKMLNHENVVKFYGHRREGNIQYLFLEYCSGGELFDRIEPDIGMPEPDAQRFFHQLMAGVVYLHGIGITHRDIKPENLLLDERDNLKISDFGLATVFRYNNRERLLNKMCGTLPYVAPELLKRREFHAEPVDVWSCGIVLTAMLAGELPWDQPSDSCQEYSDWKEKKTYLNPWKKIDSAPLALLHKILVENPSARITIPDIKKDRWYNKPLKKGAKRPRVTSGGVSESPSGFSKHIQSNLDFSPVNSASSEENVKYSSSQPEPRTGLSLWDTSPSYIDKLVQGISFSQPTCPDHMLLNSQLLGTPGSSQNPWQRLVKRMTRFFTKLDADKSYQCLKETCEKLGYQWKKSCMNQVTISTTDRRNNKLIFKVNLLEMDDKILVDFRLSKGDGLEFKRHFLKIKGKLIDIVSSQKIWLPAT
Description: 2 μL of kinase CHK1 (#V1941, Promega), 1 μL of compound diluted with buffer, and 2 μL of ATP substrate was successively added to a 384-well plate (final concentration of CHK1 was 1 ng/well, ATP was 10 μM). The positive control wells contained CHK1, ATP and DMSO whereas the negative control wells contained ATP, DMSO without enzyme. The mixtures were centrifuged at 1000 rpm for 1 minute and kept in darkness at room temperature for 1 hour to react. Then, 5 μL of ADP-Glo reagent was added to each well and incubated at room temperature for 40 minutes. At the end of incubation, 10 μL of kinase detection reagent was added to each well, and the relative chemiluminescence values (RLU) were measured on Varioskan® Flash (Thermo). The following calculation was performed: Inhibition rate %=(RLU of positive control−RLU of compound)/(RLU of positive control−RLU of negative control)×100. Data were analyzed using GraphPad Prism6.0 and fitted using the curve equation: Y=Bottom+(Top-Bottom)/(1+10^((Log IC50−X)*HillSlope)), and IC50 values were calculated.

[1] = system: human breast cancer cell HCC1806; test: Proliferation of HCC1806 cells, MTT assay; assay type: cell-based; settings: HCC1806, 72 h, 3 days treatment, read-out: IC50 (inhibition of proliferation of HCC1806)
Description: Newly revived HCC1806 cells (purchased from Guangzhou Genio) were cultured and passaged for at least three generations before use. Cells were used at 90% confluency for experiments. Cells were digested with trypsinase and centrifuged at 800 rpm for 5 minutes. The cell pellets were resuspended in fresh RPMI1640 medium and cells were counted. Cells were seeded on 96-well cell culture plates at 2000 cells/well and incubated overnight at 37° C., 5% CO2. The stock solutions of the test substances (including the test compounds and the reference compound) were serially diluted to 8 concentrations with DMSO at a ratio of 1:3. Five μL of each of the serially diluted solutions were added to 120 μL of medium (diluted by 25 times) and mixed by shaking. […] The cell culture plates were returned to incubator at 37° C., 5% CO2 for 3 days. At the end of treatment the cell viability was determined by MTT colorimetric assay. Cell culture medium in each well was replaced by 100 μL/well of serum-free fresh medium containing MTT (0.5 mg/mL), and the culture was continued for additional 4 hours.
(§1) Data was analyzed by GraphPad Prism 6.0. The inhibitory effects of compounds on cell proliferation were plotted based on cell viability vs. the logarithm of compound concentration. Cell viability %=(ODcompound−ODbackground)/(ODDMSO−ODbackground)×100.

[2] = system: human colon cancer cell LoVo; test: Proliferation of LoVo cells, MTT assay; assay type: cell-based; settings: 96 h, 4 days treatment, read-out: IC50 (inhibition of proliferation of LoVo)
Description: Newly revived LoVo cells (purchased from Shanghai Cell Institute) were cultured and passaged for at least three generations before use. Cells were used at 90% confluence for experiment. Cells were digested with trypsinase and centrifuged at 800 rpm for 5 minutes and the supernatant was discarded. The cell pellets were resuspended in fresh RPMI1640 medium and counted. Cells were seeded on 96-well cell culture plates at 5000 cells/well and incubated overnight at 37° C., 5% CO2. The stock solutions of the test substances (including the test compounds and the reference compound) were serially diluted to 8 concentrations with DMSO at a ratio of 1:3. 5 μL of each series diluted solutions was added to 120 μL of medium (diluted by 25 times) and mixed by shaking. […] The cell culture plates were returned to incubator at 37° C. and 5% CO2 for 4 days. At the end of treatment, the cell viability was determined by MTT colorimetric assay. Cell culture medium in each well was replaced by 100 μL/well of serum-free DMEM medium containing MTT (0.5 mg/mL), and the culture was continued for additional 4 hours. Medium was then discarded and 100 μL/well of DMSO was added.
as §1

SMILES | IC50 (CHK1 kinase) | IC50 [1] | IC50 [2] | inhibition at 0.01 µM (CHK1 kinase)
COc1cccc(OC[C@H]2CCCNC2)c1-c1cc(Nc2cnc(C#N)c(C)n2)n[nH]1 [Example 28, (S)-5-((5-(2-methoxy-6-(piperidin-3-ylmethoxy)phenyl)-1H-pyrazol-3-yl)amino)-3-methylpyrazine-2-carbonitrile] | 0.3 nM | 42.2 nM | 42.5 nM | –
COc1cccc(OCC2CNC2)c1-c1cc(Nc2cnc(C#N)cn2)n[nH]1 [Example 31, 5-((5-(2-(azetidin-3-ylmethoxy)-6-methoxyphenyl)-1H-pyrazol-3-yl)amino)pyrazine-2-carbonitrile] | 0.38 nM | 6.4 nM | 5.6 nM | –
COc1cccc(OC[C@H]2CCCN(C)C2)c1-c1cc(Nc2cnc(C#N)cn2)n[nH]1 [Example 32, (S)-5-((5-(2-methoxy-6-((1-methylpiperidin-3-yl)methoxy)phenyl)-1H-pyrazol-3-yl)amino)pyrazine-2-carbonitrile] | – | 31.7 nM | 25.6 nM | 91%
COc1cccc(OC[C@H]2CCCCN2)c1-c1cc(Nc2cnc(C#N)cn2)n[nH]1 [Example 33, (R)-5-((5-(2-methoxy-6-(piperidin-2-ylmethoxy)phenyl)-1H-pyrazol-3-yl)amino)pyrazine-2-carbonitrile] | – | 32.4 nM | 26 nM | 97%
COc1cccc(OC[C@H]2CCCOC2)c1-c1cc(Nc2cnc(C#N)cn2)n[nH]1 [Example 34, (S)-5-((5-(2-methoxy-6-((tetrahydro-2H-pyran-3-yl)methoxy)phenyl)-1H-pyrazol-3-yl)amino)pyrazine-2-carbonitrile] | – | 102 nM | 64.9 nM | 69%
CCOc1cccc(OC[C@H]2CCCNC2)c1-c1cc(Nc2cnc(C#N)cn2)n[nH]1 [Example 35, (S)-5-((5-(2-ethoxy-6-(piperidin-3-ylmethoxy)phenyl)-1H-pyrazol-3-yl)amino)pyrazine-2-carbonitrile] | 1.78 nM | 21.6 nM | 21.2 nM | –
CC(C)Oc1cccc(OC[C@H]2CCCNC2)c1-c1cc(Nc2cnc(C#N)cn2)n[nH]1 [Example 36, (S)-5-((5-(2-isopropoxy-6-(piperidin-3-ylmethoxy)phenyl)-1H-pyrazol-3-yl)amino)pyrazine-2-carbonitrile] | – | 698 nM | 807 nM | 63%
COc1c(F)ccc(OC[C@H]2CCCNC2)c1-c1cc(Nc2cnc(C#N)cn2)n[nH]1 [Example 37, (S)-5-((5-(3-fluoro-2-methoxy-6-(piperidin-3-ylmethoxy)phenyl)-1H-pyrazol-3-yl)amino)pyrazine-2-carbonitrile] | 0.77 nM | 30.5 nM | 28.8 nM | –
COc1cc(F)cc(OC[C@H]2CCCNC2)c1-c1cc(Nc2cnc(C#N)cn2)n[nH]1 [Example 38, (S)-5-((5-(4-fluoro-2-methoxy-6-(piperidin-3-ylmethoxy)phenyl)-1H-pyrazol-3-yl)amino)pyrazine-2-carbonitrile] | 0.52 nM | 3.5 nM | 3.2 nM | –
COc1cc(F)cc(OC[C@H]2CCNC2)c1-c1cc(Nc2cnc(C#N)cn2)n[nH]1 [Example 39, (S)-5-((5-(4-fluoro-2-methoxy-6-(pyrrolidin-3-ylmethoxy)phenyl)-1H-pyrazol-3-yl)amino)pyrazine-2-carbonitrile] | 0.2 nM | 1 nM | 1 nM | –
COc1cc(Cl)cc(OC[C@H]2CCCNC2)c1-c1cc(Nc2cnc(C#N)cn2)n[nH]1 [Example 40, (S)-5-((5-(4-chloro-2-methoxy-6-(piperidin-3-ylmethoxy)phenyl)-1H-pyrazol-3-yl)amino)pyrazine-2-carbonitrile] | 0.88 nM | 5.5 nM | 6.6 nM | –
COc1cc(Br)cc(OC[C@H]2CCCNC2)c1-c1cc(Nc2cnc(C#N)cn2)n[nH]1 [Example 41, (S)-5-((5-(4-bromo-2-methoxy-6-(piperidin-3-ylmethoxy)phenyl)-1H-pyrazol-3-yl)amino)pyrazine-2-carbonitrile] | 0.85 nM | 4.4 nM | 5.1 nM | –
COc1c(C)ccc(OC[C@H]2CCCNC2)c1-c1cc(Nc2cnc(C#N)cn2)n[nH]1 [Example 42, (S)-5-((5-(2-methoxy-3-methyl-6-(piperidin-3-ylmethoxy)phenyl)-1H-pyrazol-3-yl)amino)pyrazine-2-carbonitrile] | – | 69.2 nM | 66.6 nM | 85%
COc1cc(C)cc(OC[C@H]2CCCNC2)c1-c1cc(Nc2cnc(C#N)cn2)n[nH]1 [Example 43, (S)-5-((5-(2-methoxy-4-methyl-6-(piperidin-3-ylmethoxy)phenyl)-1H-pyrazol-3-yl)amino)pyrazine-2-carbonitrile] | 1.17 nM | 1.6 nM | 1.6 nM | –
COc1cc(C)cc(OC[C@@H]2CNCCO2)c1-c1cc(Nc2cnc(C#N)cn2)n[nH]1 [Example 44, (S)-5-((5-(2-methoxy-4-methyl-6-(morpholin-2-ylmethoxy)phenyl)-1H-pyrazol-3-yl)amino)pyrazine-2-carbonitrile] | 0.93 nM | 13.3 nM | 18 nM | –
COc1cc(C(F)(F)F)cc(OC[C@H]2CCCNC2)c1-c1cc(Nc2cnc(C#N)cn2)n[nH]1 [Example 45, (S)-5-((5-(2-methoxy-6-(piperidin-3-ylmethoxy)-4-(trifluoromethyl)phenyl)-1H-pyrazol-3-yl)amino)pyrazine-2-carbonitrile] | 1.57 nM | 8.8 nM | 9.5 nM | –
N#Cc1cnc(Nc2cc(-c3c(F)cccc3OC[C@H]3CCCNC3)[nH]n2)cn1 [Example 46, (S)-5-((5-(2-fluoro-6-(piperidin-3-ylmethoxy)phenyl)-1H-pyrazol-3-yl)amino)pyrazine-2-carbonitrile] | 0.59 nM | 14.7 nM | 13.3 nM | –
N#Cc1cnc(Nc2cc(-c3c(Cl)cccc3OC[C@H]3CCCNC3)[nH]n2)cn1 [Example 47, (S)-5-((5-(2-chloro-6-(piperidin-3-ylmethoxy)phenyl)-1H-pyrazol-3-yl)amino)pyrazine-2-carbonitrile] | – | 381 nM | 533 nM | 40%
N#Cc1cnc(Nc2cc(-c3c(O)cccc3OC[C@H]3CCCNC3)[nH]n2)cn1 [Example 48, (S)-5-((5-(2-hydroxy-6-(piperidin-3-ylmethoxy)phenyl)-1H-pyrazol-3-yl)amino)pyrazine-2-carbonitrile] | 0.58 nM | 6.5 nM | 5.4 nM | –
N#Cc1cnc(Nc2cc(-c3c(F)cccc3OCC3CNC3)[nH]n2)cn1 [Example 53, 5-((5-(2-(azetidin-3-ylmethoxy)-6-fluorophenyl)-1H-pyrazol-3-yl)amino)pyrazine-2-carbonitrile] | – | 89.4 nM | 72 nM | 95%
